Experimental data reported in US20260240925A1, “METHOD AND COMPOSITION FOR PREVENTING OR TREATING MYOPIA” (Tsubota Laboratory, Inc., priority 2022, published 2026).

B1: IL-4: a cytokine necessary for M2 macrophage polarization (protein, UniProt P05112 25-153, looked up)
Interleukin-4: HKCDITLQEIIKTLNSLTEQKTLCTELTVTDIFAASKNTTEKETFCRAATVLRQFYSHHEKDTRCLGATAQQFHRHKQLIRFLKRLDRNLWGLAGLNSCPVKEANQSTLENFLERLKTIMREKYSKCSS

Columns and labels:
Type in all cases: in vivo, mouse
[1] = system: mice with LIM-induced myopia; test: Test Example 4: mast cell stabilizer vs histamine receptor antagonist instillation in mice with LIM-induced myopia; details: for choroidal thinning (change in choroidal thickness) / myopic shift in refraction (change in refractive value) / ocular elongation (change in axial length): eye drops, pemirolast potassium 0.1% solution, levocabastine 0.025% solution, vs control group
Procedure: (§1) The axial length, choroidal thickness, and refractivity of the mice in each group were measured. The axial length and the choroidal thickness were measured using spectral domain optical coherence tomography (Envisu R4310, manufactured by Leica). The refractivity was measured using an infrared photorefractor for mice (made by Professor Schaeffel, University of Tubingen).
Anti-allergic drugs are broadly divided into two types: mast cell stabilizers, which inhibit mast cell degranulation, and histamine receptor inhibitors, which inhibit the action of histamine secreted due to mast cell degranulation. In order to clarify whether the myopia suppression effect of the mast cell stabilizer instillation in Test Example 3 was due to the action of the anti-allergic drug or to the inhibition of mast cell degranulation, pemirolast potassium (0.1% solution) and levocabastine solution (0.025% solution) were administered as eye drops, respectively as a mast cell stabilizer and a histamine receptor inhibitor, to mice with LIM-induced myopia, and the myopia-suppressing effects were compared.

[2] = system: lens-induced myopia model mice; test: Test Example 3: mast cell stabilizer instillation in lens-induced myopia model; details: for progression of myopia: ocular instillation, minus-lens-induced myopia mouse model; for choroidal thinning (change in choroidal thickness) / myopic shift in refraction (change in refractive value) / ocular elongation (change in axial length): once daily ocular instillation, 3 weeks myopia induction, cromolyn 4% solution, pemirolast potassium 0.1% solution, vs PBS group
Procedure: as §1
To verify the inhibitory effect of mast cell stabilizer instillation on myopia progression, a lens-induced myopia model was employed, wherein myopia was induced in mice by fitting the mice with minus lenses. During the myopia induction period, either cromolyn solution (4% solution) or pemirolast potassium (0.1% solution) was administered once daily by means of ocular instillation.
Following the test method described above, the axial length, refractive value, and choroidal thickness were measured in mice that underwent myopia induction for 3 weeks and ocular instillation of cromolyn solution or pemirolast potassium solution, as well as in control mice, and the amounts of changes therein were calculated (FIG. 7A, B, and C).

choroidal macrophages = test: M2 macrophage polarization in the choroid after IL-13 administration, flow cytometry; details: IL-13 during the myopia induction period
Procedure: The number of macrophages was measured using a flow cytometer (CytoFLEX S, Beckman Coulter) after digestion of the choroid and staining with F4/80 antibody and CD11b antibody. The number of M2 macrophages was measured in the same manner as for the measurement of the number of macrophages, except for the addition of a staining process with CD206 antibody.

C57BL6J mice = test: Myopia suppression by IL-13 administration during the myopia induction period (minus lens); details: IL-13 during the myopia induction period
Procedure: as §1
Changes in blood flow were measured using swept-source optical coherence tomography (OCT S-1, Canon).

[3] = system: M2 macrophage markers CD163 and CD206; test: M2 macrophage polarization in the choroid after IL-4 administration (Western blot, real-time PCR); details: IL-4 10 μg/kg BW intraperitoneally
Procedure: Therefore, IL-4, which is a cytokine necessary for M2 macrophage polarization, was administered to mice, and whether M2 polarization would occur in the choroid was evaluated by means of analyzing the expression levels of M2 macrophage markers CD163 and CD206 (FIG. 3A and B).
C57BL6J mice (n=4 per group) were intraperitoneally administered 0.1 μg/100 μl (10 μg/kg BW) of IL-4 solution. Choroid, retina, and liver samples were taken at 0 hours (before administration) as well as 4, 24, and 48 hours after administration, and the expression of M2 macrophage marker genes was analyzed by Western blot and real-time PCR (FIG. 3). In addition, choroid and retina samples were collected at 0 hours (before administration) as well as 4 and 24 hours after administration, and the expression of oxidative-stress-related genes was analyzed by real-time PCR (FIG. 4).

[4] = system: C57BL6 mice undergoing myopia induction; test: Myopia suppression by IL-4 administration in mice undergoing myopia induction (-30 D lens); details: IL-4 10 μg/kg BW intraperitoneally for 3 weeks
Procedure: as §1
Additionally, IL-4 was administered to mice undergoing myopia induction to evaluate whether there is a myopia suppression effect (FIG. 4).
C57BL6 mice undergoing myopia induction (−30 D lens, n=4) were intraperitoneally administered 0.1 μg/100 μl (10 μg/kg BW) of IL-4 solution for 3 weeks. C57BL6J mice undergoing myopia induction (0 D lens, −30 D lens, n=4 per group) were used as control groups.

| Molecule | choroidal thinning (change in choroidal thickness) [1] | myopic shift in refraction (change in refractive value) [1] | ocular elongation (change in axial length) [1] | progression of myopia [2] | choroidal thinning (change in choroidal thickness) [2] | myopic shift in refraction (change in refractive value) [2] | ocular elongation (change in axial length) [2] | other results |
| --- | --- | --- | --- | --- | --- | --- | --- | --- |
| Cc1cccn2c(=O)c(-c3nnn[nH]3)cnc12 [pemirolast potassium] | not observed | not observed | not observed | suppression | not observed | not observed | not observed | – |
| C[C@@H]1CN([C@H]2CC[C@](C#N)(c3ccc(F)cc3)CC2)CC[C@]1(C(=O)O)c1ccccc1 [levocabastine] | observed | observed | observed | – | – | – | – | progression of myopia ([1]; ocular instillation, mice undergoing myopia induction by fitting a minus lens): not suppressed |
| O=C(O)c1cc(=O)c2c(OCC(O)COc3cccc4oc(C(=O)O)cc(=O)c34)cccc2o1 [cromolyn, cromolyn sodium] | – | – | – | suppression | not observed | not observed | not observed | – |
| IL-13: a cytokine that causes M2 polarization of macrophages | – | – | – | – | – | – | – | M2 macrophage polarization (choroidal macrophages): induced; choroidal thinning (C57BL6J mice): suppressed; minus-lens-induced ocular elongation (C57BL6J mice): suppressed; myopic shift in refraction (C57BL6J mice): suppressed |
| B1 | – | – | – | – | – | – | – | expression of M2 markers CD163 and CD206 in the choroid ([3]; 0, 4, 24, 48 hours): increased the expression; M2 macrophage polarization ([3]; choroid): confirmed; expression of oxidative-stress-related genes ([3]; choroid and retina, 0, 4, 24 hours, real-time PCR): suppressed expression; expression of M2 macrophage marker genes ([3]; gene expression analysis): increased expression; choroidal thinning [4]: suppresses; ocular elongation [4]: suppresses; refractive loss [4]: suppresses |
